From US20140158116A1, “INHIBITING TRPA1 FOR THE TREATMENT OF ASTHMA” (Cubist Pharmaceuticals, Inc., priority 2012, published 2014)
Like-named read-outs stand apart in the source and are kept apart here.

Assays:
rTRPA1 = rTRPA1 (Rattus norvegicus, UniProt Q6RI86); test: Whole-cell patch clamp block of inward current through rTRPA1; assay type: cell-based
Experimental: Data for TRPA1 inhibition and the selectivity of TRPA1 inhibition was obtained by this method for the compound of Formula (Ia) and included in Table 1 and Table 2. All currents were recorded in whole-cell configuration using EPC-9 and EPC-10 amplifiers and Patchmaster software (HEKA). […] The standard pipette solution consisted of 140 mM CsAsp, 10 mM EGTA, 10 mM HEPES, 2.27 mM MgCl2, 1.91 mM CaCl2, 4 mM MgATP, and 0.1-0.3 mM Na2GTP, with pH adjusted to 7.2 with CsOH. In addition, a solution containing 145 mM CsCl, 10 mM HEPES, 10 mM EGTA and 1 mM MgCl2 (pH 7.2 adjusted with CsOH) can be used. The standard bath solution contained 150 mM NaCl, 10 mM HEPES, 10 mM glucose, 4.5 mM KCl, 1 mM EGTA, 3 mM MgCl2, with pH adjusted to 7.4 with NaOH. In some instances, 2 mM CaCl2 was added in place of EGTA and the concentration of MgCl2 was reduced to 1 mM.
Data were collected either by continuous recordings at −60 mV or by applying voltage ramps from a holding potential of 0 mV every 4 s. Continuous recordings were collected at 400 Hz and digitally filtered off-line at 10 Hz for presentation. Voltage ramps were applied from −100 mV to 100 mV over the course of 400 ms, and data were collected at 10 kHz and filtered at 2.9 kHz. Inward and outward currents were analyzed from the ramps at −80 and 80 mV, respectively. Liquid junction potential correction was not used.
Solutions were switched using a gravity-fed continuous focal perfusion system. To achieve rapid temperature changes, two temperature control and perfusion systems were employed simultaneously. For temperatures ≧22° C., a Warner Instruments bipolar temperature controller (TC-344B) and inline heater (SHM-8) were used. […] Temperatures were confirmed using a thermistor (Warner Instruments, TA-29), with temperatures at the recorded cell estimated to be within +/−2° C. of those reported.
IC50 of compounds was estimated by testing each compound at 5 micromolar and 500 nanomolar. […] IC50 for compounds between 500 nanomolar and 5 micromolar was similarly estimated. […]

[1] = system: airway hyper-responsiveness to Carbachol; test: Sheep allergic asthma model, airway hyper-responsiveness (PC400) to Carbachol; assay type: in vivo; settings: 24 hour post-challenge Carbachol
Experimental: Compounds were tested in the sheep model of experimental asthma reported in Abraham W M, Asthma & Rhinitis, 2000: 1205-1227 incorporated herein by reference in its entirety.
The unsedated sheep were restrained in a cart in the prone position with their heads immobilized. After topical anesthesia of the nasal passages with 2% lidocaine solution, a balloon catheter was advanced through one nostril into the lower esophagus. The sheep were intubated with a cuffed endotracheal tube through the other nostril. Pleural pressure was estimated with the esophageal balloon catheter. Lateral pressure in the trachea was measured with a sidehole catheter (inner dimension, 2.5 mm) advanced through and positioned distal to the tip of the endotracheal tube. Transpulmonary pressure, the difference between tracheal and pleural pressure, was measured with a differential pressure transducer catheter system. For the measurement of pulmonary resistance (RL), the proximal end of the endotracheal tube was connected to a pneumotachograph. […]
Baseline concentration response curves to aerosol Carbachol were obtained 1 to 3 days before commencement of drug/vehicle treatment. […] Baseline values of pulmonary resistance (RL) were obtained within 30 minutes of treatment and then re-measured 30 minutes before antigen challenge. […]

rTRPA1, sequence (Q6RI86 whole entry): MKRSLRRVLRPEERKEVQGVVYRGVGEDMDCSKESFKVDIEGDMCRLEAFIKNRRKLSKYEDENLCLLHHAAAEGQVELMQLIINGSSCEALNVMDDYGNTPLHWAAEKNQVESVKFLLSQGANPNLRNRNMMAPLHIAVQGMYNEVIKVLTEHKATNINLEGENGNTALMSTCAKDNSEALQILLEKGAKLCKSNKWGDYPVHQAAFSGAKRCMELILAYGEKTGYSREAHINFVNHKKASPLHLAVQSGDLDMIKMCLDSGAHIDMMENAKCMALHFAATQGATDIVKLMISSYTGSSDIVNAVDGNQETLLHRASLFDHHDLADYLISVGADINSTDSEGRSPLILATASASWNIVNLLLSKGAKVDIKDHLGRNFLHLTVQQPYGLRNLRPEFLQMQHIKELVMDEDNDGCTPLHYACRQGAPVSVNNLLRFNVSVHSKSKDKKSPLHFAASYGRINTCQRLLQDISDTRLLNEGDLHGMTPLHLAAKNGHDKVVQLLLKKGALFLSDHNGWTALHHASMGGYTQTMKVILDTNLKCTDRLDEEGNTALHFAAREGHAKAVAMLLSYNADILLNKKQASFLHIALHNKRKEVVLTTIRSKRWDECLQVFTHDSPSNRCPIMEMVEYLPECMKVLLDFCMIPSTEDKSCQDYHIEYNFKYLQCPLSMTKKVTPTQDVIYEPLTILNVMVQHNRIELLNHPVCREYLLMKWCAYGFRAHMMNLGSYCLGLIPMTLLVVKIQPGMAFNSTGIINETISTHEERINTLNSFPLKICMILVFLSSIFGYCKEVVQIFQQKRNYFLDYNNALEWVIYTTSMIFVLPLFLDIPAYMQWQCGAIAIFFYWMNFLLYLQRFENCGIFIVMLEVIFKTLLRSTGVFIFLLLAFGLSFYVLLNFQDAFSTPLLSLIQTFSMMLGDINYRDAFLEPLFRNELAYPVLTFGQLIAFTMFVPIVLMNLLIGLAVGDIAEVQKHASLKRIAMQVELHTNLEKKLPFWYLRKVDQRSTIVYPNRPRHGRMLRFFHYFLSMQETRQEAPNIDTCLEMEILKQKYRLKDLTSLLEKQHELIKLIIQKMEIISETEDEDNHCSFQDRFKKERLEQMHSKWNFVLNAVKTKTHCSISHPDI

IC50 (rTRPA1; class symbol, read-out: Potency (IC50) Rat): ≥ 100 nM
IC50 (rTRPA1; rTRPA1, Rat, current activation 10 micromolar AITC, read-out: IC50 Inward current): 101 ± 8 nM
Structure (SMILES): C[C@H]1CCCN1c1ncc(-c2cccc(NC(=O)Cn3cnc4c3c(=O)n(C)c(=O)n4C)n2)cn1 [Formula (Ia)]
airway hyper-responsiveness (PC400), relative to baseline ([1]; 5 mg/kg PO): 100%
airway hyper-responsiveness (PC400), relative to baseline ([1]; 10 mg/kg PO): 100%
